Results: patent US11584734B2, “Tricyclic compounds as histone methyltransferase inhibitors” (GLOBAL BLOOD THERAPEUTICS, INC., priority 2017, dated 2023)

molecular target: T1, G9a (Homo sapiens, UniProt Q96KQ7); experiment: G9a AlphaLISA enzymatic activity assay; assay type: biochemical; conditions: negative log of IC50 in molar, 0.15 nM G9a, 15 uM S-adenosyl-methionine, 100 nM biotinylated histone 3 peptide (1-21)
T1 sequence (Q96KQ7 1-1210): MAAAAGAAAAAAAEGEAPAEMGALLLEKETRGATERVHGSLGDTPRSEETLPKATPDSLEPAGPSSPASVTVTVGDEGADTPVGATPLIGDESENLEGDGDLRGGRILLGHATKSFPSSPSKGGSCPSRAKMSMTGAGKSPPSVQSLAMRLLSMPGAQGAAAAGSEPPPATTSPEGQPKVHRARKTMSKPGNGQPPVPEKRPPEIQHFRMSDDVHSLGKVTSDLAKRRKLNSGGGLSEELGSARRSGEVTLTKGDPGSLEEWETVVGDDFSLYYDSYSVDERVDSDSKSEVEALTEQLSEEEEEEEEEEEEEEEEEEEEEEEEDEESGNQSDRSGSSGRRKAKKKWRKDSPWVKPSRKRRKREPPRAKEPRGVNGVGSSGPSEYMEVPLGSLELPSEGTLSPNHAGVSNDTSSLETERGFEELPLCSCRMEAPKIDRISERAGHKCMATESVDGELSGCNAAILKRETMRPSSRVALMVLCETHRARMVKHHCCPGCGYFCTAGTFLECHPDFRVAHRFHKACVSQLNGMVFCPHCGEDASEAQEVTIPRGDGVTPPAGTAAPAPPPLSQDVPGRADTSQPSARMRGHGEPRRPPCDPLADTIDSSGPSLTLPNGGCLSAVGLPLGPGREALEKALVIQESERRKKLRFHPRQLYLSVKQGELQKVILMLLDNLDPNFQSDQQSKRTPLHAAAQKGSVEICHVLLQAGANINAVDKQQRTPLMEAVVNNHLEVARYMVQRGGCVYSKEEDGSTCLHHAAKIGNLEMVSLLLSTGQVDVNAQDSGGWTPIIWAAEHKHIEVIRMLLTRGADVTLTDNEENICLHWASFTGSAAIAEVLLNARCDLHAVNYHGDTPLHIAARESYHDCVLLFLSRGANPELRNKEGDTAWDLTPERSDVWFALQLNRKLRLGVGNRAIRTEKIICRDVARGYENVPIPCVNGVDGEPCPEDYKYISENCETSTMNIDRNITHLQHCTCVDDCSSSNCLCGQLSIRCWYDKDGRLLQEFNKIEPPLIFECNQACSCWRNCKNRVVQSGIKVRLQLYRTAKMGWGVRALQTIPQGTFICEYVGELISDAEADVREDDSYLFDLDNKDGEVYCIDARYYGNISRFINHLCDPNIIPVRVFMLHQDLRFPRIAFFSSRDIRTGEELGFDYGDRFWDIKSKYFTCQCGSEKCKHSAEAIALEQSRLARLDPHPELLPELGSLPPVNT
From the text: The G9a AlphaLISA assay was used to detect the methyl modifications of a biotinylated histone H3 peptide by the compounds. These modifications are done by the histone methyl transferase activity of the G9a enzyme. The assay consists of reading a chemiluminescent signal at 615 nm; this signal is generated by a laser excitation at 680 nm that transfers a reactive singlet oxygen between the donor beads and acceptor beads. Donor beads are streptavidin conjugated and bind to the biotin on the peptide. Acceptor beads are conjugated with an antibody that recognizes the specific G9a methyl mark on the peptide. If there is a methyl mark on the peptide, the acceptor beads will bind to the peptide. Upon binding, the acceptor beads will be in close proximity (<200 nm) of the donor beads and when the donor beads are excited, the transfer of the oxygen can occur and a strong signal will be generated. If there is no methyl mark, the interaction between beads will not occur and signal will be at background levels.
For the assay, the following buffer was used to set up reactions: 50 mM Tris-HCl pH9, 50 mM NaCl, 0.01% Tween-20 and 1 mM DTT (added fresh prior to starting the reactions). […] The reaction is incubated at rt for 1 hour and subsequently quenched by the addition of the acceptor beads (anti-H3k9me2 AlphaLISA acceptor beads, PerkinElmer #AL117) at a final concentration of 20 ug/mL. The acceptor beads are incubated for 1 hour. After 1 hour, the donor beads are added at a final concentration of 20 ug/mL (Alpha Streptavidin donor beads, PerkinElmer #6760002). Donor beads are incubated for 0.5 hours. Both donor and acceptor beads are resuspended in AlphaLISA 5X Epigenetics Buffer 1 Kit (PerkinElmer #AL008) prior to addition to the reaction. All manipulations and incubations with the donor and acceptor beads are done in subdued light. Signal is detected in an EnVision plate reader in Alpha mode. See ACS Med Chem Lett. 2014; 5(2):205-9.
Percent inhibition was calculated for each compound dilution and the concentration that produced 50% inhibition was calculated. This value is presented as the pIC50, which is the negative log of the IC50 value in molar.

| SMILES | IC50 |
| --- | --- |
| CNc1c2c(nc3cc(OCCCNS(C)(=O)=O)c(OC)cc13)CCC2 [Example 62, N-(3-{[7-methoxy-9-(methylamino)-1H,2H,3H-cyclopenta[b]quinolin-6-yl]oxy}propyl)methanesulfonamide] | 933 nM |
| CNc1c2c(nc3cc(OCCC(C)N4CCCC4)c(OC)cc13)CCC2 (stereo not shown) [Example 64, 7-methoxy-N-methyl-6-[3-(pyrrolidin-1-yl)butoxy]-1H,2H,3H-cyclopenta[b]quinolin-9-amine] | 126 nM |
| CNc1c2c(nc3cc(OC(C)CCN4CCCC4)c(OC)cc13)CCC2 (stereo not shown) [Example 65, 7-methoxy-N-methyl-6-{[4-(pyrrolidin-1-yl)butan-2-yl]oxy}-1H,2H,3H-cyclopenta[b]quinolin-9-amine] | 72.4 nM |
| COc1cc2c(NCC3CC3)c3c(nc2cc1OCC1(CN2CCCC2)COC1)CCC3 [Example 68, N-(cyclopropylmethyl)-7-methoxy-6-({3-[(pyrrolidin-1-yl)methyl]oxetan-3-yl}methoxy)-1H,2H,3H-cyclopenta[b]quinolin-9-amine] | 1550 nM |
| CNc1c2c(nc3cc(OCCCN4C5CCCC4CC5)c(OC)cc13)CCC2 [Example 69, 6-(3-{8-azabicyclo[3.2.1]octan-8-yl}propoxy)-7-methoxy-N-methyl-1H,2H,3H-cyclopenta[b]quinolin-9-amine] | 2690 nM |
| CNc1c2c(nc3cc(OCCCN(C)C)c(OC)cc13)CCC2 [Example 71, 6-[3-(dimethylamino)propoxy]-7-methoxy-N-methyl-1H,2H,3H-cyclopenta[b]quinolin-9-amine] | 40.7 nM |
| COc1cc2c(NCC3CC3)c3c(nc2cc1OCCCNS(N)(=O)=O)CCC3 [Example 72, N-[3-({9-[(cyclopropylmethyl)amino]-7-methoxy-1H,2H,3H-cyclopenta[b]quinolin-6-yl}oxy)propyl]aminosulfonamide] | 1950 nM |
| CCNc1c2c(nc3cc(OCCCN4CC[C@@H](OC)C4)c(OC)cc13)CCC2 [Example 75, N-ethyl-7-methoxy-6-{3-[(3R)-3-methoxypyrrolidin-1-yl]propoxy}-1H,2H,3H-cyclopenta[b]quinolin-9-amine] | 52.5 nM |

Continued by falling IC50, values first:

| IC50 | SMILES |
| --- | --- |
| 537 nM | CNc1c2c(nc3cc(OCCCN)c(OC)cc13)CCC2 [Example 61, 6-(3-aminopropoxy)-7-methoxy-N-methyl-1H,2H,3H-cyclopenta[b]quinolin-9-amine] |
| 437 nM | CCN(CC)CCOCCOc1cc2nc3c(c(NC(C)C)c2cc1OC)CCC3 [Example 66, 6-{2-[2-(diethylamino)ethoxy]ethoxy}-7-methoxy-N-(propan-2-yl)-1H,2H,3H-cyclopenta[b]quinolin-9-amine] |
| 18.2 nM | COc1cc2c(NCC3CC3)c3c(nc2cc1OCCOCCN(C)C)CCC3 [Example 63, N-(cyclopropylmethyl)-6-{2-[2-(dimethylamino)ethoxy]ethoxy}-7-methoxy-1H,2H,3H-cyclopenta[b]quinolin-9-amine] |
| 8.32 nM | COc1cc2c(NCC3CNC3)c3c(nc2cc1OCCCN1CC2CC(C2)C1)CCC3 [Example 74, 6-(3-{3-azabicyclo[3.1.1]heptan-3-yl}propoxy)-N-[(azetidin-3-yl)methyl]-7-methoxy-1H,2H,3H-cyclopenta[b]quinolin-9-amine] |
| 6.46 nM | COc1cc2c(NC3CCN(C(C)C)CC3)c3c(nc2cc1OCCCN1CC[C@@H](OC)C1)CCC3 [Example 76, N-(7-methoxy-6-{3-[(3R)-3-methoxypyrrolidin-1-yl]propoxy}-1H,2H,3H-cyclopenta[b]quinolin-9-yl)-1-(propan-2-yl)piperidin-4-amine] |
| 4.9 nM | COc1cc2c(NC3CCN(C(C)C)CC3)c3c(nc2cc1OCCCN(C)C)CCC3 [Example 70, N-{6-[3-(dimethylamino)propoxy]-7-methoxy-1H,2H,3H-cyclopenta[b]quinolin-9-yl}-1-(propan-2-yl)piperidin-4-amine] |
| 1.45 nM | COc1cc2c(NC3CCCNC3)c3c(nc2cc1OCCCN(C)C)CCC3 (stereo not shown) [Example 73, N-{6-[3-(dimethylamino)propoxy]-7-methoxy-1H,2H,3H-cyclopenta[b]quinolin-9-yl}piperidin-3-amine] |
| 1.35 nM | COc1cc2c(NCC3CNC3)c3c(nc2cc1OCCCN1CCCC1)CCC3 [Example 67, N-[(azetidin-3-yl)methyl]-7-methoxy-6-[3-(pyrrolidin-1-yl)propoxy]-1H,2H,3H-cyclopenta[b]quinolin-9-amine] |
